Measurements reported in patent US11612583B2, “Disease modifying methods for treating neurodegenerative diseases using nootropic agents” (priority 2018, dated 2023).
Entries after “also recorded” stand apart in the source; their conditions may differ.

Key:
[1] = system: primary cortical neurons treated with rotenone; assay: Extracellular acidification rates (ECARs), proxy for glycolysis, in rotenone-treated primary cortical neurons; format: cell-based, mouse; details: after rotenone 65 nM 24 hours, 6.5 μM-8.5 μM, FIG. 3
Description: Rotenone (1.26 mM stock, Sigma, Cat #R8875) was freshly prepared in water prior to each use. Stocks of rotenone were maintained in the dark at −20° C. for up to 6 months. […]
The extracellular acidification rates (ECARs), a proxy for glycolysis, were also assessed by using an XF24^e Extracellular Flux Analyzer in primary neurons.

[2] = system: primary cortical neurons treated with rotenone; assay: Image-based analysis of mitochondrial content in dendrites (MAP2B/TOM20 immunostaining); format: cell-based, mouse; details: after rotenone 65 nM; Forskolin/NKH477 6.5 μM-8.5 μM or 250 μM dbt-cAMP; FIG. 4
From the text: The rotenone-treated neurons were also studied by image-based analyses of mitochondrial content in dendrites from primary cortical neurons immunostained for dendrites (MAP2B) and for mitochondria (TOM20).

[3] = system: primary cortical neurons treated with rotenone; assay: Dendrite length analysis (MAP2B immunostaining); format: cell-based, mouse; details: after rotenone 65 nM; Forskolin/NKH477 6.5 μM-8.5 μM or 250 μM dbt-cAMP; FIG. 5
PINK1 knockout mice = assay: Dendrite length and mitochondrial content of substantia nigra dopamine neurons in PINK1 knockout mice; format: in vivo, mouse; details: intraperitoneal 1 mg/kg once every 2 days up to one week, vs untreated PINK1 knockout mice
Description: (§1) All experiments involving mice and rats were performed in accord with ARRIVE (Animal Research: Reporting of In Vivo Experiments) guidelines. Wild-type C57BL/6 and PINK1 knockout mice (B6.129S4-Pink1^tm1Slm/J), wild-type (Long Evans rats) and PINK1 knockout (LEH-PINK1^tm1sage.Park6) rats (SAGE labs through Horizon Discovery) were handled humanely and appropriately per the ARRIVE guidelines. All mice were housed at the Laboratory of Animal Resources (University of Nevada, Reno) in cages containing sufficient bedding, food (pellets), water, with sufficient social, nutritional and “enriched” environments, and maintained in HVAC-pressurized/sterile environment and in 12:12 hr light/dark cycles.
Wild-type (PINK1+/+) or PINK1 knockout (PINK1−/−) mice were treated with intraperitoneal injections of DMSO control or Forskolin (1 mg/kg body weight) once every 2 days for up to one week. At the end of each treatment, mice were sacrificed, and intracardially perfused with saline followed by 4% formaldehyde. Midbrain slices from wild-type and PINK1 KO mice were immunostained for mitochondria (TOM20) and tyrosine hydroxylase (TH, purple) to identify midbrain dopamine neurons and dendrite length.

PINK1-KO rats [4] = assay: Tapered beam balance test (coordination and balance) in PINK1-KO rats; format: in vivo, rat; details: intraperitoneal Forskolin 1.6 mg/kg with or without Noopept 0.05 μg/kg; 10 days; post vs pre-treatment; FIG. 10
Description: as §1
(§2) Wild-type (PINK1+/+) or PINK1 knockout (PINK1−/−) rats were treated with intraperitoneal injections of DMSO control or of Forskolin (1.6 mg/kg body weight) once every 2 days for two doses followed by co-administration with Noopept (0.05 μg/kg) for three more doses (once every two days) for up to a total treatment time of 10 days. […] In addition, muscle coordination and balance were assessed by subjecting the rats to cross a 1-meter, tapered beam balance (2 cm width) for up to three trials per animal. […]

PINK1-KO rats [5] = assay: Hind limb grip strength in PINK1-KO rats; format: in vivo, rat; details: intraperitoneal Forskolin 1.6 mg/kg with or without Noopept 0.05 μg/kg; 10 days; post vs pre-treatment; FIG. 11
Description: as §1, §2

PINK1-KO rats [6] = assay: Tyrosine hydroxylase immunofluorescence in midbrain slices of PINK1-KO rats; format: in vivo, rat; details: female PINK1-KO rats; intraperitoneal Forskolin 1.6 mg/kg with or without Noopept 0.05 μg/kg; FIG. 13
Description: Wild-type (PINK1+/+) or PINK1 knockout (PINK1−/−) rats were treated with intraperitoneal injections of DMSO control or of Forskolin (1.6 mg/kg body weight) once every 2 days for two doses followed by co-administration with Noopept (0.05 μg/kg) for three more doses (once every two days) for up to a total treatment time of 10 days. At the end of each treatment, a battery of motor tests were performed in vehicle-treated or WT and PINK1-KO rats treated with compounds to analyze for muscle strength in hind legs by using a grip strength analyzer. In addition, muscle coordination and balance were assessed by subjecting the rats to cross a 1-meter, tapered beam balance (2 cm width) for up to three trials per animal. Another group of wild-type and PINK1-KO rats were sacrificed, and intracardially perfused with saline followed by 4% formaldehyde. Midbrain slices from wild-type and PINK1-KO rats were immunostained for tyrosine hydroxylase (TH, purple) to identify midbrain dopamine neurons. […] (*:p<0.05 vs. WT/vehicle, **:p<0.05 vs. PINK1-KO/vehicle, One-Way ANOVA, Tukey's test, N=4-7 rats per group).

Protein Kinase A (PKA) = assay: PKA activity in cortex lysates after intranasal administration (ELISA-based colorimetric kit); format: in vivo, wild-type Long Evans Hooded rats; details: for blood brain barrier crossing: intranasal formulation, inferred from increased cortical PKA activity within 24 hrs; for PKA activity in the cortex: intranasal, 6 μl per nostril, 24 hr, 2.5 and 10 μM in cerebrospinal fluid, vs 0 μM, FIG. 14
Description: PKA activity was measured in cortex of wild-type Long Evans Hooded rats by determining the level of PKA-mediated substrate phosphorylation by using an ELISA-based colorimetric PKA activity kit per manufacturer's recommendations (Enzo Life Sciences; ADI-EKS-390A) with the following minor modifications. To determine PKA-specific activity, lysates form the cortex were treated with H89, a pharmacological inhibitor of PKA at 10 μM for 5 min, and the H89-resistant kinase activity was subtracted from total kinase activity of untreated tissue lysates.
Combine 1.68 grams K2HPO4 ([…]), 5.28 grams KH2PO4 ([…]), and 81.8 grams NaCl ([…]). Add distilled H2O up to 1 L total volume. Autoclave and sterilize solution. Adjust the pH of the solution to 7.4 using a pH meter. Add 1 gram sodium benzoate (0.1%) or propyl benzoic acid. Reconstitute up to 2 mg of lyophilized, sterile, pharmaceutical grade water-soluble Forskolin analogue, for example water soluble analogue NKH477, in 1 mL of PBS by using a 1 mL syringe. Transfer the reconstituted Forskolin onto the receiving chamber of an intranasal atomizer (NAD nasal) prior to intranasal delivery.
(*:p<0.05 vs. 0 μM, One-Way ANOVA, Tukey's test, N=3 rats per group).

C=C[C@@]1(C)CC(=O)[C@]2(O)[C@@]3(C)[C@@H](O)CCC(C)(C)[C@@H]3[C@H](O)[C@H](OC(C)=O)[C@@]2(C)O1 [Forskolin]
glycolysis (baseline ECARs) [1]: completely restored normal glycolytic function; also recorded: significantly restored | mitochondrial content in dendrites (% of dendrites occupied by mitochondria) [2]: reversed the loss of mitochondria within dendrites; also recorded: completely blocked; also recorded: significantly restored | dendrite arbors (total dendrite length per neuron) [3]: reversed the loss of dendrites; also recorded: completely blocked; also recorded: significantly restored | dendrite length of substantia nigra dopamine neurons (PINK1 knockout mice; FIG. 6A): significantly increased; also recorded: reverses the loss of dendrites | mitochondrial content in dendrites of substantia nigra dopamine neurons (PINK1 knockout mice; FIG. 6B): significantly increased; also recorded: reverses the loss of dendrites and mitochondria in dendrites | coordination and balance (motor score, falls and slips per crossing) (PINK1-KO rats [4]): can reverse the loss of coordination and balance; also recorded: can reverse the loss of balance and coordination | hind limb muscle strength (PINK1-KO rats [5]): can reverse the loss of hind limb strength; also recorded: can reverse the loss of muscle strength | substantia nigra/midbrain dopamine neurons (integrated density of TH immunofluorescence) (PINK1-KO rats [6]): completely reverses the loss of midbrain dopamine neurons; also recorded: significantly reversed neurodegeneration | blood brain barrier crossing (Protein Kinase A (PKA)): can efficiently cross the blood brain barrier; also recorded: efficiently crosses the blood brain barrier | blood brain barrier crossing (Protein Kinase A (PKA); listed as forskolin): crosses the blood brain barrier efficiently | PKA activity in the cortex (Protein Kinase A (PKA)): significantly increases PKA activity | PKA activity in the cortex (Protein Kinase A (PKA); listed as forskolin): enhances neuroprotective PKA activity
